Values of other authors as cited in patent US10526334B2, “Methods for preparing bis-tetrahydroisoquinoline-containing compounds” (California Institute of Technology, priority 2017, dated 2020).
Read-outs that look alike come from different tables or passages of the source.

How the values were obtained:
[1] = tested on: A375 melanoma
[2] = tested on: A549 lung cancer
[3] = not given; remark: listed apart in the source
[4] = tested on: DU145 prostate cancer
[5] = tested on: HCT116 colon cancer
[6] = read-out: IC50 (A549 lung cancer)

| SMILES | IC50 [1] [nM] | IC50 [2, 6] [nM] | in vivo half-life (t1/2) (in rodents) [h] | t1/2 (rodent) (rodent) [h] | t1/2 (human) ([3]; human) [h] | in vivo half-life (t1/2) ([3]; in humans) [h] | IC50 ([2]; read-out: IC50 vs. A549 lung cancer) [nM] | IC50 [4] [nM] | IC50 [5] [nM] | rodent in vivo half-life (rodent) [h] |
| --- | --- | --- | --- | --- | --- | --- | --- | --- | --- | --- |
| COc1cc2c(cc1O)CCN[C@]21CS[C@@H]2c3c(OC(C)=O)c(C)c4c(c3[C@H](COC1=O)N1[C@@H]2[C@H]2c3c(cc(C)c(OC)c3O)C[C@@H]([C@@H]1O)N2C)OCO4 [Et 743, ecteinascidin 743] | 0.15 | 1 | 20 | 20 | 96 to 180 | 96 to 180 | – | – | – | – |
| COC1=C(C)C(=O)C2=C(C1=O)[C@@H]1[C@@H]3CC4=C(C(=O)C(OC)=C(C)C4=O)[C@H](COC(C)=O)N3[C@@H](O)[C@H](C2)N1C [Jorumycin, jorumycin] | – | – | – | – | – | – | 0.24 | 0.49 | 0.57 | – |
| COc1c(C)c(OC)c2c(c1O)[C@@H]1[C@@H]3Cc4c(OC)c(C)c(OC)c(O)c4[C@H](CNC(=O)c4ccc5ccccc5n4)N3[C@@H](C#N)[C@H](C2)N1C [QAD] | 1.3 | 4.4 | – | – | – | – | – | – | – | 0.283 |
